This note sets out measurements from PubChem BioAssay (NCI).

SMILES strings stand for the structures.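 A five-concentration, 48-hour dose response in 96-well plates underlies each endpoint, interpolated linearly between surrounding concentrations. GI50 marks 50% less growth. Definition used: TGI = concentration required for complete inhibition of growth.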

Some test systems named below: ACHN renal; HCT-15 colon; HL-60(TB) leukemia; K-562 leukemia; KM12 colon; MDA-MB-231 breast; NCI-H226 lung; SK-MEL-5 melanoma; SK-OV-3 ovarian; TK-10 renal.
What all share (experiment): DTP human tumour cell line panel, 48 h

For `C(/Cc1ccc2c(c1)OCO2)=N\NC1=NCCCN1`, the TGI in the assay with ACHN renal, with HCT-15 colon, in the assay with HL-60(TB) leukemia, in the assay with K-562 leukemia, in the assay on KM12 colon and in the assay on MDA-MB-231 breast was more than 100 µM in each case. For the same molecule, the TGI (usually the concentration giving total growth inhibition) in the assay with NCI-H226 lung was more than 100 µM; in the assay on SK-MEL-5 melanoma, 56.4 µM; in the assay on SK-OV-3 ovarian, more than 100 µM; in the assay on TK-10 renal, more than 100 µM.

On to `COC(=O)[C@@H]1CN(C(=O)c2ccccc2)C(=O)N1C(=O)OCc1ccccc1`, for which the TGI with ACHN renal, with HCT-15 colon, in the assay with HL-60(TB) leukemia, in the assay on K-562 leukemia, with KM12 colon and in the assay with MDA-MB-231 breast was more than 100 µM in each case. Further, the TGI with NCI-H226 lung, in the assay with SK-MEL-5 melanoma, in the assay with SK-OV-3 ovarian and with TK-10 renal was more than 100 µM throughout.

Regarding `CO[C@H]1C[C@H](O[C@H]2CC[C@]3(C=O)[C@H]4CC[C@]5(C)[C@@H](C6=CC(=O)OC6)CC[C@]5(O)[C@@H]4CC[C@]3(O)C2)O[C@H](C)[C@H]1O`, the TGI with ACHN renal is 1.92 µM; in the assay with HCT-15 colon, 0.732 µM; in the assay with HL-60(TB) leukemia, 2.51 µM; in the assay on K-562 leukemia, 1.35 µM; with KM12 colon, 1.93 µM; in the assay on MDA-MB-231 breast, 5.34 µM. The TGI in the assay with NCI-H226 lung came out at 1.28 µM; with SK-MEL-5 melanoma it was 0.385 µM; with SK-OV-3 ovarian, 0.815 µM; in the assay on TK-10 renal, 0.758 µM.

Take `C=CC1CN2CCC1CC2C(O)c1ccnc2ccccc12` (stereo unspecified): the total growth inhibition concentration (TGI) in the assay with ACHN renal, with HCT-15 colon, with HL-60(TB) leukemia, with K-562 leukemia, in the assay on KM12 colon and with MDA-MB-231 breast was more than 100 µM in each case. Moreover, the total growth inhibition concentration (TGI) with NCI-H226 lung, in the assay on SK-MEL-5 melanoma, in the assay with SK-OV-3 ovarian and with TK-10 renal was more than 100 µM each time. Besides, in the assay on K-562 leukemia, the GI50 (commonly the concentration that inhibits growth by half) was more than 100 µM.

Regarding `O=C(Nc1cccc(-n2cc(-c3ccncc3)c(-c3ccc(O)c(Cl)c3)n2)c1)c1cccc(C(F)(F)F)c1`, the GI50 in the assay with ACHN renal is 3.71 µM; in the assay with HCT-15 colon it was 1.98 µM; in the assay with HL-60(TB) leukemia, 2.68 µM; with K-562 leukemia, 2.41 µM; with KM12 colon, 2.67 µM; in the assay with MDA-MB-231 breast it was 1.43 µM. In addition, the GI50 in the assay with NCI-H226 lung was 7.17 µM; in the assay on SK-MEL-5 melanoma, 2.38 µM; in the assay with SK-OV-3 ovarian, 99.1 µM; in the assay with TK-10 renal, 7.18 µM. Besides, the TGI is more than 100 µM in the assay with ACHN renal; more than 100 µM in the assay with HCT-15 colon; 6.76 µM in the assay with HL-60(TB) leukemia; more than 100 µM in the assay on K-562 leukemia; 64.3 µM with KM12 colon; 5.3 µM in the assay with MDA-MB-231 breast. For the same molecule, the concentration for total growth inhibition (TGI) in the assay with NCI-H226 lung is more than 100 µM; in the assay on SK-MEL-5 melanoma, 16.2 µM; in the assay on SK-OV-3 ovarian, more than 100 µM; with TK-10 renal it was more than 100 µM.

Turning to `CCOC(=O)C(=O)C(=O)NN(C)C1=NCCN1`, the TGI in the assay on ACHN renal, in the assay on HCT-15 colon, with HL-60(TB) leukemia, in the assay on K-562 leukemia, in the assay on KM12 colon and in the assay on MDA-MB-231 breast was more than 100 µM throughout. Also, the TGI with NCI-H226 lung, with SK-MEL-5 melanoma, in the assay on SK-OV-3 ovarian and with TK-10 renal was more than 100 µM each time.

Turning to `O=C1CC(n2cccc2)c2c(Br)sc(Br)c21` (stereo unspecified), the TGI with ACHN renal was found to be 31.8 µM; with HCT-15 colon it was 30.7 µM; with HL-60(TB) leukemia it was 41.4 µM; in the assay with K-562 leukemia it was 64.8 µM; in the assay with KM12 colon it was 22.8 µM; in the assay with MDA-MB-231 breast, 30.9 µM. Also, the TGI in the assay with NCI-H226 lung worked out at 42.2 µM; in the assay on SK-MEL-5 melanoma, 29.6 µM; in the assay with SK-OV-3 ovarian, 35.2 µM; in the assay with TK-10 renal, 45.4 µM.

For the molecule `Cc1nc(-c2cc3cc(Cl)ccc3oc2=O)cc2c1c(=O)oc1ccc(Cl)cc12`, the concentration for total growth inhibition (TGI) in the assay on ACHN renal, in the assay with HCT-15 colon, with HL-60(TB) leukemia, with K-562 leukemia, with KM12 colon and in the assay on MDA-MB-231 breast was more than 100 µM each time. For the same molecule, the TGI in the assay on NCI-H226 lung, in the assay on SK-MEL-5 melanoma, with SK-OV-3 ovarian and in the assay with TK-10 renal was more than 100 µM each time.

`Nc1nc(Cl)cc(NCC2(O)CCCC2)n1`: the TGI with ACHN renal, in the assay on HCT-15 colon, in the assay on HL-60(TB) leukemia, in the assay with K-562 leukemia, with KM12 colon and in the assay on MDA-MB-231 breast was more than 100 µM each time. Further, the TGI in the assay with NCI-H226 lung, in the assay with SK-MEL-5 melanoma, with SK-OV-3 ovarian and in the assay on TK-10 renal was more than 100 µM in each case.

In the case of `c1ccc(-c2nnn(CCN3CCCCC3)n2)cc1`, the TGI with ACHN renal, in the assay with HCT-15 colon, in the assay with HL-60(TB) leukemia, with K-562 leukemia, in the assay with KM12 colon and in the assay on MDA-MB-231 breast was more than 100 µM each time. Further, the TGI in the assay with NCI-H226 lung, in the assay with SK-MEL-5 melanoma, in the assay with SK-OV-3 ovarian and in the assay on TK-10 renal was more than 100 µM in each case.

Take `COC(=O)c1c(C)nc(C)c(NO)c1-c1ccccc1C(F)(F)F`: the concentration for total growth inhibition (TGI) with ACHN renal was 71.6 µM; in the assay on HCT-15 colon, 32.3 µM; in the assay with HL-60(TB) leukemia, more than 100 µM; with K-562 leukemia it was more than 100 µM; with KM12 colon, more than 100 µM; in the assay with MDA-MB-231 breast it was 27.9 µM. For the same molecule, the TGI with NCI-H226 lung was 76.7 µM; with SK-MEL-5 melanoma, more than 100 µM; in the assay on SK-OV-3 ovarian it was more than 100 µM; with TK-10 renal it was 37.4 µM.

For the molecule `CC1CC/C(=C\c2ccc(Cl)cc2)c2nc(N)c(C#N)c(-c3ccc(Cl)cc3)c21` (stereo unspecified), the concentration for total growth inhibition (TGI) with ACHN renal is more than 100 µM; with HCT-15 colon, more than 100 µM; in the assay with HL-60(TB) leukemia it was 15.4 µM; with K-562 leukemia, more than 100 µM; with KM12 colon, more than 100 µM; in the assay with MDA-MB-231 breast, more than 100 µM. In addition, the concentration for total growth inhibition (TGI) in the assay on NCI-H226 lung, in the assay with SK-MEL-5 melanoma, with SK-OV-3 ovarian and in the assay with TK-10 renal was more than 100 µM throughout.

Consider `O=[N+]([O-])c1ccc(C(Nc2ccccc2)c2ccc3cccnc3c2O)cc1` (stereo unspecified), for which the TGI with ACHN renal was more than 100 µM; in the assay on HCT-15 colon, more than 100 µM; in the assay on HL-60(TB) leukemia, 13.4 µM; with K-562 leukemia it was more than 57.4 µM; in the assay with KM12 colon it was more than 100 µM; in the assay with MDA-MB-231 breast it was 59.9 µM. Besides, the TGI was more than 27.7 µM with NCI-H226 lung, 22.3 µM in the assay on SK-MEL-5 melanoma, more than 100 µM in the assay on SK-OV-3 ovarian and 68.8 µM with TK-10 renal.

`NC(=O)Cc1nc2c(=O)[nH]cnc2n1C1OC(CO)C(O)C1O` (stereo unspecified): the TGI with ACHN renal, in the assay with HCT-15 colon, in the assay with HL-60(TB) leukemia, in the assay on K-562 leukemia, in the assay on KM12 colon and in the assay with MDA-MB-231 breast was more than 100 µM throughout. The TGI in the assay with NCI-H226 lung, with SK-MEL-5 melanoma, in the assay with SK-OV-3 ovarian and in the assay with TK-10 renal was more than 100 µM in each case.

Consider `CCN(CC)c1ccc2cc(-c3nc4ccccc4c(=O)[nH]3)c(=N)oc2c1`, for which the TGI with ACHN renal, with HCT-15 colon, with HL-60(TB) leukemia, in the assay on K-562 leukemia, in the assay on KM12 colon and in the assay on MDA-MB-231 breast was more than 100 µM in each case. Moreover, the TGI in the assay on NCI-H226 lung, with SK-MEL-5 melanoma, in the assay on SK-OV-3 ovarian and in the assay on TK-10 renal was more than 100 µM each time.

With `O=c1cc(NCc2ccncc2)[nH]c(=O)[nH]1`, the TGI with ACHN renal, with HCT-15 colon, in the assay with HL-60(TB) leukemia, in the assay with K-562 leukemia, in the assay on KM12 colon and in the assay on MDA-MB-231 breast was more than 100 µM throughout. Besides, the TGI with NCI-H226 lung, in the assay on SK-MEL-5 melanoma, in the assay with SK-OV-3 ovarian and in the assay on TK-10 renal was more than 100 µM throughout.

For `NCCOCC(N)C(=O)O` (stereo unspecified), the TGI with ACHN renal, in the assay on HCT-15 colon, with HL-60(TB) leukemia, in the assay on K-562 leukemia, in the assay on KM12 colon and in the assay on MDA-MB-231 breast was more than 100 µM in each case. The TGI in the assay on NCI-H226 lung, in the assay on SK-MEL-5 melanoma, with SK-OV-3 ovarian and in the assay with TK-10 renal was more than 100 µM each time.

Regarding `NC(=O)CO/N=C1/C(c2c(O)[nH]c3ccccc23)=Nc2ccccc21`, the TGI in the assay with ACHN renal, in the assay with HCT-15 colon, in the assay with HL-60(TB) leukemia, with K-562 leukemia, in the assay on KM12 colon and with MDA-MB-231 breast was more than 100 µM throughout. Besides, the TGI with NCI-H226 lung, in the assay with SK-MEL-5 melanoma, with SK-OV-3 ovarian and in the assay with TK-10 renal was more than 100 µM in each case.
